Regarding `N#Cc1ccc(C(F)(F)C23CCCN2C(=O)N(c2cc(Cl)cc(Cl)c2)C3=O)cc1` (stereo not drawn) [Example 113, 5-(4-Cyano-α,α-difluorobenzyl)-3-(3,5-dichlorophenyl)-1,3-diazabicyclo[3.3.0]octane-2,4-dione], the melting point is 66 °C. Take `CC(O)c1cccc(-c2ccc(CC34CCCN3C(=O)N(c3cc(Cl)cc(Cl)c3)C4=O)cc2)c1` (stereo not drawn) [Example 223, 5-[4-[3-(!-Hydroxy)ethylphenyl]benzyl]-3-(3,5-dichlorophenyl)-1,3-diazabicyclo[3.3.0]octane-2,4-dione]: the melting point came to 66.5 °C.

As for `NC(=O)C1CN2C(=O)N(c3cc(Cl)cc(Cl)c3)C(=O)C2(Cc2ccc(OC(F)(F)F)cc2)C1` (stereo not drawn) [Example 317], the melting point came to 140.3 °C. As for `CN(C)CC(=O)N1CCN2C(=O)N(c3cc(Cl)cc(Cl)c3)C(=O)C2(Cc2ccc(Br)cc2)C1` (stereo not drawn) [Example 31, 4-[(Dimethylamino)acetyl]-6-(4-bromobenzyl)-8-(3,5-dichlorophenyl)-1,4,8-triazabicyclo[4.3.0]nonane-7,9-dione], the figure is 73.5 °C; as for `CC(=O)c1cccc(N2C(=O)N3CCCC3(Cc3ccc(Br)cc3)C2=O)c1` (stereo not drawn) [Example 237], 120.4 °C; as for `N#Cc1cccc(N2C(=O)N3CCCC3(Cc3ccc(Br)cc3)C2=O)c1` (stereo not drawn) [Example 234], 241 °C. Then `O=C1N(c2cc(C(F)(F)F)cc(C(F)(F)F)c2)C(=O)C2(Cc3ccc(Br)cc3)CCCN12` (stereo not drawn), with 138 °C. Turning to `O=C1N(c2cc(Cl)cc(Cl)c2)C(=O)C2(Cc3ccc(-c4ccc([N+](=O)[O-])cc4)cc3)CCCN12` (stereo not drawn) [Example 114, 5-[4-(4-Nitrophenyl)benzyl]-3-(3,5-dichlorophenyl)-1,3-diazabicyclo[3.3.0]octane-2,4-dione], the melting point lay within 72 to 73 °C. Then `N#Cc1ccc(CC23CN(C(=O)CCC(=O)O)CCN2C(=O)N(c2cc(Cl)nc(Cl)c2)C3=O)cc1` (stereo not drawn) [Example 163, 6-(4-Cyanobenzyl)-4-(3-carboxypropionyl)-8-(2,6-dichloro-4-pyridyl)-1,4,8-triazabicyclo[4.3.0]nonane-7,9-dione], with 100.9 °C (dec.); and `O=C1N(c2cc(Cl)cc(Cl)c2)C(=O)C2(Cc3ccc(Br)cc3)CCCCN12` (stereo not drawn) [Example 6, 6-(4-Bromobenzyl)-8-(3,5-dichlorophenyl)-1,8-diazabicyclo[4.3.0]nonane-7,9-dione], with 128.8 °C. Then `CC(=O)N[C@@H]1CN2C(=O)N(c3cc(Cl)nc(Cl)c3)C(=O)[C@@]2(Cc2ccc(OC(F)(F)F)cc2)C1` [Example 64, (5R,7S)-5-[4-(Trifluoromethoxy)benzyl]-3-(2,6-dichloro-4-pyridyl)-7-acetamido-1,3-diazabicyclo[3.3.0]octane-2,4-dione], with 126.9 °C.

Regarding `O=C1N(c2cccc(Cl)c2)C(=O)C2(Cc3ccc(Br)cc3)CCCN12` (stereo not drawn) [Example 230], the melting point is 66 °C.

`O=C1N(c2cc(Cl)cc(Cl)c2)C(=O)C2(Cc3ccc(Br)cc3)CCCN12` (stereo not drawn) [Example 1, 5-(4-Bromobenzyl)-3-(3,5-dichlorophenyl)-1,3-diazabicyclo[3.3.0]octane-2,4-dione] displayed a melting point of 69.4 °C. Then `CNC(=O)C1CN2C(=O)N(c3cc(Cl)cc(Cl)c3)C(=O)C2(Cc2ccc(OC(F)(F)F)cc2)C1` (stereo not drawn) [Example 319], with 122.7 °C; and `O=C1N(c2cc(Cl)cc(Cl)c2)C(=O)C2(Cc3ccccc3)CCCN12` (stereo not drawn) [Example 267], with 173.8 °C; and `CN(C)[C@@H]1CN2C(=O)N(c3cc(Cl)cc(Cl)c3)C(=O)[C@@]2(Cc2ccc(Br)cc2)C1` [Example 50, (5R,7S)-5-(4-Bromobenzyl)-3-(3,5-dichlorophenyl)-7-dimethylamino-1,3-diazabicyclo[3.3.0]octane-2,4-dione], with 54 °C. Then `O=C(O)CCC(=O)N[C@@H]1CN2C(=O)N(c3cc(Cl)nc(Cl)c3)C(=O)[C@@]2(Cc2ccc(OC(F)(F)F)cc2)C1` [Example 66, (5R,7S)-5-[4-(Trifluoromethoxy)benzyl]-3-(2,6-dichloro-4-pyridyl)-7-(3-carboxypropanoylamino)-1,3-diazabicyclo[3.3.0]octane-2,4-dione], with 101.9 °C.

As for `O=C1N(c2cc(Cl)cc(Cl)c2)C(=O)C2(Cc3ccc([S+]([O-])C(F)(F)F)cc3)CCCN12` (stereo not drawn) [Example 310], the melting point was 63.5 °C. As for `O=C(Nc1ccccc1)Nc1cccc(-c2ccc(CC34CCCN3C(=O)N(c3cc(Cl)cc(Cl)c3)C4=O)cc2)c1` (stereo not drawn) [Example 126, 5-[4-[3-(Phenylureido)phenyl]benzyl]-3-(3,5-dichlorophenyl)-1,3-diazabicyclo[3.3.0]octane-2,4-dione], the figure is 150.2 °C; as for `O=C1N(c2cc(Cl)nc(Cl)c2)C(=O)C2(Cc3ccc(Br)cc3)CCCNN12` (stereo not drawn) [Example 100, 6-(4-Bromobenzyl)-8-(2,6-dichloro-4-pyridyl)-1,2,8-triazabicyclo[4.3.0] nonan-7,9-dione], 190 °C (dec.); as for `O=C1N(c2cc(Cl)cc(Cl)c2)C(=O)[C@@]2(Cc3ccc(Br)cc3)C[C@H](O)CN12` [Example 61, (5R,7S)-5-(4-Bromobenzyl)-3-(3,5-dichlorophenyl)-7-hydroxy-1,3-diazabicyclo[3.3.0]octane-2,4-dione], 60.4 °C. Then `CC(=O)Nc1cccc(-c2ccc(CC34CCCN3C(=O)N(c3cc(Cl)cc(Cl)c3)C4=O)cc2)c1` (stereo not drawn) [Example 119], with 98 °C. Then `O=C(N[C@@H]1CN2C(=O)N(c3cc(Cl)nc(Cl)c3)C(=O)[C@@]2(Cc2ccc(OC(F)(F)F)cc2)C1)c1ccncc1` [Example 67, (5R,7S)-5-[4-(Trifluoromethoxy)benzyl]-3-(2,6-dichloro-4-pyridyl)-7-(isonicotinoylamino)-1,3-diazabicyclo[3.3.0]octane-2,4-dione], with 148 °C; and `NC(=O)[C@H]1CN2C(=O)N(c3cc(Cl)cc(Cl)c3)C(=O)[C@]2(Cc2ccc(OC(F)(F)F)cc2)C1` [Example 312, (5R, 7R)-5-[4-(Trifluoromethoxy)benzyl]-3-(3,5-dichlorophenyl)-7-carbamoyl-1,3-diazabicyclo[3.3.0]octane-2,4-dione], with 122.7 °C. `[N-]=[N+]=N[C@@H]1CN2C(=O)N(c3cc(Cl)cc(Cl)c3)C(=O)[C@]2(Cc2ccc(Br)cc2)C1` [Example 3, (5S,7S)-5-(4-Bromobenzyl)-3-(3,5-dichlorophenyl)-7-azido-1,3-diazabicyclo[3.3.0]octane-2,4-dione] had a melting point of 58.9 °C. As for `O=C1CCCN1c1cccc(-c2ccc(CC34CCCN3C(=O)N(c3cc(Cl)cc(Cl)c3)C4=O)cc2)c1` (stereo not drawn) [Example 127, 5-[4-[3-(2-oxo-1-pyrrolidinyl)phenyl]benzyl]-3-(3,5-dichlorophenyl)-1,3-diazabicyclo[3.3.0]octane-2,4-dione], the figure is 86.5 °C; as for `N#Cc1ccc(C(=O)C23CCCN2C(=O)N(c2cc(Cl)cc(Cl)c2)C3=O)cc1` (stereo not drawn) [Example 112, 5-(4-Cyanobenzoyl)-3-(3,5-dichlorophenyl)-1,3-diazabicyclo[3.3.0]octane-2,4-dione], 72.1 °C.

The melting point is the temperature of the solid-liquid transition.

The record behind these values is US7342012B2, “Inhibitors of αLβ2 mediated cell adhesion” (Mitsubishi Tanabe Pharma Corporation, priority 1999, dated 2008).
